From paper PMC8341802 (RSC Chemical Biology, 2021)

Biological target: APOBEC3A (A3A) (Homo sapiens, UniProt P31941)
Assay type: biochemical

Sequence of APOBEC3A (A3A) (P31941 whole entry): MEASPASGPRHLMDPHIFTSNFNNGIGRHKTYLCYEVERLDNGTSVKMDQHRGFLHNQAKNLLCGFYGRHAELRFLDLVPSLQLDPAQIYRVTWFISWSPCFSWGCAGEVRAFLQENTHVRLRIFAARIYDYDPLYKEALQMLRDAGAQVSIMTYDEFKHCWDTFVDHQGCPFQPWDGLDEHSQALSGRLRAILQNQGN

Q: How did the IC50 turn out when O=C(O)C1=CC(=C(c2ccc(O)c(C(=O)O)c2)c2ccc(O)c(C(=O)O)c2)C=CC1=O [MN1, aurintricarboxylic acid] was run?
A: 40.5 µM
